Measurements taken from PMC6162288, “On-chip spatiotemporal electrophysiological analysis of human stem cell derived cardiomyocytes enables quantitative assessment of proarrhythmia in drug development” (Scientific Reports, 2018).
pIC50: −log10 of the molar value.

How the values were obtained:
lined-up hESC-CMs = test: MEA field potential recording of lined-up hESC-CMs (cFPD, CT, their STVs, ISI, beat rate, arrest); assay type: cell-based, human; conditions: for BR (beat rate) / ISI (inter-spike interval) / STVCT / STVcFPD / cFPD / Cond. Time (CT): change vs Ctrl.; for CT: at equivalent concentrations of Nav1.5 IC50; for Arrest: arrest cases/chips
Procedure: Human embryonic stem cell-derived cardiomyocytes clusters (hES-CMCs) were shipped from Cellectis (hES-CMCTM002, hES cell line SA002, Gothenburg, Sweden)[42],[43], and maintained in Dulbecco’s modified Eagle’s medium (DMEM) supplemented 20% heat-inactivated fetal bovaine serum, 1 mM GlutaMax, 100 U/mL penicillin, 0.1 mg/mL streptomycin, 1% nonessential amino acids and 0.1 mM β-mercaptoethanol (Invitrogen, Carsbad, CA, USA). Dispersed cardiomyocytes were isolated from hES-CMCs by a modification of the methods of Norström et al.[44]–[48]. […] The supernatant was gently aspirated with pipette, and a 5-hold volume of DMEM was added as stop solution. Remaining clusters were treats ed with the above process with several times. The supernatants were collected and centrifuged with 200 × g for 2–3 min at 4 °C. The resulting supernatant including dispersed cells was seeded into agarose microchambers on an MEA chip (MED-P530A; AlphaMED scientific. Co. Ltd., Japan)[40].
The MEA chip surface was prepared as follows. First, the chip surface was coated with collagen type I-C (Nitta Gelatin, Japan). After drying, the chip surface was coated with a 0.1% agarose gel. […] At >30 min before the start of experiment, the medium was changed to 2 mL pre-warmed fresh maintenance medium per chip.
Extracellular potential recordings of the lined-up hESC-CMs were performed using the MEA system at a sampling rate of 10 kHz with a low path filter of 2 kHz and high path filter of 1 Hz, and signals were amplified by 100–50,000 using the amplifier. The MEA chip with lined-up hESC-CMs was set in the FP measurement device and placed in a humidified cell culture incubator at 37 °C, 5% CO2. The signals were analyzed by Igor Pro 6.0 (WaveMetrics, Inc., USA) and FlexPro 7.0 (Weisang GmbH, Germany).
We adopted the same drug administration protocol as we examined previously[40] (Fig. 2B). Briefly, the MEA chips of lined-up cells for experiments were selected from the chips having 0.6–1.1 Hz beating frequency and ventricle-like waveforms of FP recordings (see Fig. 1B,D). The MEA chip was placed in the holder of the FP measurement device, and equilibrated for 5 min, and then the control FP waveforms were recorded for 10 min. Subsequently, the drug was applied to the medium at 1% dilution in serially increasing additions, and the FP waveforms were recorded for 10 min at each concentration. Finally, the drug-containing medium was replaced with fresh medium after washing three times. The last 50 beats extracted from 10 min recorded FP waveform data was used for beat rate, FPD (the time from first depolarization peak to broad repolarization peak) and CT (the time difference of the first peaks between separately placed electrodes in lined-upped cell-network) measurement at each concentration (Fig. 2C).
It was normalized (cFPD) to the beating rate of cardiomyocytes using Bazett’s correction formula based on the comparison of the slope of a plot of inter-spike interval and FPD, or corrected FPD by Bazett’s or Fridericia’s formulae (Fig. 3). The short-term variability (STV) of cFPD and CT, which was defined as the mean distance of points perpendicular to the line of identity in the Poincaré plot, was calculated ( STV=∑|D(n+1)−Dn|/(n×2) , where Dn represents the FPD and CT of n-th beating). STVs were last 50 beat data from 5 min extraction of cFPD and CT. To assess the arrhythmogenicity risk of test drugs, the mean values of cFPD, STVcFPD, CT and STVCT of each drug were plotted.

[1] = cited from earlier work; for EPTC: effective therapeutic plasma concentration
Cav1.2 = conditions: read-out: IC50 Cav1.2; cited from earlier work
[2] = Conc. 10^5 nM (100 μM), listed as lidocaine
[3] = Conc. 10^5 nM (100 μM), listed as terfenadine

CCN(CC)CC(=O)Nc1c(C)cccc1C [Lidocaine, lidocaine]
cFPD change (lined-up hESC-CMs; 10–100 μM, P < 0.05): −18% | BR (beat rate) (lined-up hESC-CMs; Conc. 10 nM): 3.6% | ISI (inter-spike interval) (lined-up hESC-CMs; Conc. 10 nM): −3.4% | STVCT (lined-up hESC-CMs; Conc. 10 nM): 46% | STVcFPD (lined-up hESC-CMs; Conc. 10 nM): 54% | cFPD (lined-up hESC-CMs; Conc. 10 nM): 9.5% | Cond. Time (CT) (lined-up hESC-CMs; Conc. 10^2 nM (0.1 μM)): −6.0% | STVCT (lined-up hESC-CMs; Conc. 10^2 nM (0.1 μM)): 43% | STVcFPD (lined-up hESC-CMs; Conc. 10^2 nM (0.1 μM)): 38% | cFPD (lined-up hESC-CMs; Conc. 10^2 nM (0.1 μM)): 10% | BR (beat rate) (lined-up hESC-CMs; Conc. 10^2 nM): 4.4% | ISI (inter-spike interval) (lined-up hESC-CMs; Conc. 10^2 nM): −4.2% | Cond. Time (CT) (lined-up hESC-CMs; Conc. 10^3 nM (1 μM)): −7.4% | STVCT (lined-up hESC-CMs; Conc. 10^3 nM (1 μM)): 35% | STVcFPD (lined-up hESC-CMs; Conc. 10^3 nM (1 μM)): 54% | cFPD (lined-up hESC-CMs; Conc. 10^3 nM (1 μM)): 9.7% | BR (beat rate) (lined-up hESC-CMs; Conc. 10^3 nM): 2.8% | ISI (inter-spike interval) (lined-up hESC-CMs; Conc. 10^3 nM): −2.6% | Cond. Time (CT) (lined-up hESC-CMs; Conc. 10^4 nM (10 μM)): 4.7% | STVCT (lined-up hESC-CMs; Conc. 10^4 nM (10 μM)): 134% | STVcFPD (lined-up hESC-CMs; Conc. 10^4 nM (10 μM)): 345% | cFPD (lined-up hESC-CMs; Conc. 10^4 nM (10 μM)): −18% | STVCT (lined-up hESC-CMs; Conc. 10^4 nM (10 μM), listed as lidocaine): 134% | BR (beat rate) (lined-up hESC-CMs; Conc. 10^4 nM): −48% | ISI (inter-spike interval) (lined-up hESC-CMs; Conc. 10^4 nM): 128% | Cond. Time (CT) (lined-up hESC-CMs; Conc. 10^5 nM (100 μM)): 22% | STVCT (lined-up hESC-CMs; Conc. 10^5 nM (100 μM)): 54% | STVcFPD (lined-up hESC-CMs; Conc. 10^5 nM (100 μM)): 143% | cFPD (lined-up hESC-CMs; Conc. 10^5 nM (100 μM)): −18% | Cond. Time (CT) (lined-up hESC-CMs; [2]): 22.1% | STVCT (lined-up hESC-CMs; [2]): 54% | BR (beat rate) (lined-up hESC-CMs; Conc. 10^5 nM): −51% | ISI (inter-spike interval) (lined-up hESC-CMs; Conc. 10^5 nM): 160% | CT (lined-up hESC-CMs): increased | EPTC [1]: 5,970–25,603[69] nM

CC(C)(C)c1ccc(C(O)CCCN2CCC(C(O)(c3ccccc3)c3ccccc3)CC2)cc1 (stereo not drawn) [Terfenadine, terfenadine]
CT increase (lined-up hESC-CMs; 3 μM, n = 4, P < 0.05): 189% | BR (beat rate) (lined-up hESC-CMs; Conc. 10 nM): 4.6% | Cond. Time (CT) (lined-up hESC-CMs; Conc. 10 nM): 32% | ISI (inter-spike interval) (lined-up hESC-CMs; Conc. 10 nM): −4.0% | STVCT (lined-up hESC-CMs; Conc. 10 nM): 37% | STVcFPD (lined-up hESC-CMs; Conc. 10 nM): 76% | cFPD (lined-up hESC-CMs; Conc. 10 nM): 2.3% | Cond. Time (CT) (lined-up hESC-CMs; Conc. 10^2 nM (0.1 μM)): 4.0% | STVCT (lined-up hESC-CMs; Conc. 10^2 nM (0.1 μM)): 16% | STVcFPD (lined-up hESC-CMs; Conc. 10^2 nM (0.1 μM)): −3.4% | cFPD (lined-up hESC-CMs; Conc. 10^2 nM (0.1 μM)): 2.8% | BR (beat rate) (lined-up hESC-CMs; Conc. 10^2 nM): 2.0% | ISI (inter-spike interval) (lined-up hESC-CMs; Conc. 10^2 nM): −2.0% | Cond. Time (CT) (lined-up hESC-CMs; Conc. 10^3 nM (1 μM)): 101% | STVCT (lined-up hESC-CMs; Conc. 10^3 nM (1 μM)): 228% | STVcFPD (lined-up hESC-CMs; Conc. 10^3 nM (1 μM)): 37% | cFPD (lined-up hESC-CMs; Conc. 10^3 nM (1 μM)): 0.25% | STVCT (lined-up hESC-CMs; Conc. 10^3 nM (1 μM), listed as terfenadine): 228% | BR (beat rate) (lined-up hESC-CMs; Conc. 10^3 nM): −3.0% | ISI (inter-spike interval) (lined-up hESC-CMs; Conc. 10^3 nM): 3.1% | Cond. Time (CT) (lined-up hESC-CMs; Conc. 10^4 nM (10 μM)): 189% | STVCT (lined-up hESC-CMs; Conc. 10^4 nM (10 μM)): 511% | STVcFPD (lined-up hESC-CMs; Conc. 10^4 nM (10 μM)): 65% | cFPD (lined-up hESC-CMs; Conc. 10^4 nM (10 μM)): −26% | cFPD (lined-up hESC-CMs; Conc. 10^4 nM (10 μM), listed as terfenadine): −26% | Arrest (lined-up hESC-CMs; Conc. 10^4 nM): 3/7 | BR (beat rate) (lined-up hESC-CMs; Conc. 10^4 nM): −38% | ISI (inter-spike interval) (lined-up hESC-CMs; Conc. 10^4 nM): 122% | Cond. Time (CT) (lined-up hESC-CMs; Conc. 10^5 nM (100 μM)): 198% | STVCT (lined-up hESC-CMs; Conc. 10^5 nM (100 μM)): 143% | STVcFPD (lined-up hESC-CMs; Conc. 10^5 nM (100 μM)): 243% | cFPD (lined-up hESC-CMs; Conc. 10^5 nM (100 μM)): −73% | STVcFPD (lined-up hESC-CMs; [3]): 243% | cFPD (lined-up hESC-CMs; [3]): −78% | Arrest (lined-up hESC-CMs; Conc. 10^5 nM): 2/4 | BR (beat rate) (lined-up hESC-CMs; Conc. 10^5 nM): −88% | ISI (inter-spike interval) (lined-up hESC-CMs; Conc. 10^5 nM): 744% | FPD (repolarization index) (lined-up hESC-CMs; at 10 times higher than therapeutic plasma concentrations): […] | CT (lined-up hESC-CMs): increased | FPD (lined-up hESC-CMs; concentrations more than 10 μM): FPD shortening | EPTC [1]: 3.3 to 9.7 nM | Unbound ([1]; unbound therapeutic plasma concentration): 0.1 to 0.29 nM | pIC50 (Cav1.2): […]
